Measured values: article PMC6891286, “Towards the Development of an In vivo Chemical Probe for Cyclin G Associated Kinase (GAK)” (Molecules, 2019)
Where two headings read alike, the source gives them in different places.

Key:
[1] = biological target: BMP2K (Homo sapiens, UniProt Q9NSY1); assay: NAK family TR-FRET binding displacement assay
[2] = Kinetic Solubility; format: physicochemical; conditions: PBS pH7.4 (100 µM)
[3] = biological target: AAK1 (Homo sapiens, UniProt Q2M2I8); assay: NAK family TR-FRET binding displacement assay; conditions: NAK family FRET screening
AAK1, sequence (Q2M2I8 whole entry): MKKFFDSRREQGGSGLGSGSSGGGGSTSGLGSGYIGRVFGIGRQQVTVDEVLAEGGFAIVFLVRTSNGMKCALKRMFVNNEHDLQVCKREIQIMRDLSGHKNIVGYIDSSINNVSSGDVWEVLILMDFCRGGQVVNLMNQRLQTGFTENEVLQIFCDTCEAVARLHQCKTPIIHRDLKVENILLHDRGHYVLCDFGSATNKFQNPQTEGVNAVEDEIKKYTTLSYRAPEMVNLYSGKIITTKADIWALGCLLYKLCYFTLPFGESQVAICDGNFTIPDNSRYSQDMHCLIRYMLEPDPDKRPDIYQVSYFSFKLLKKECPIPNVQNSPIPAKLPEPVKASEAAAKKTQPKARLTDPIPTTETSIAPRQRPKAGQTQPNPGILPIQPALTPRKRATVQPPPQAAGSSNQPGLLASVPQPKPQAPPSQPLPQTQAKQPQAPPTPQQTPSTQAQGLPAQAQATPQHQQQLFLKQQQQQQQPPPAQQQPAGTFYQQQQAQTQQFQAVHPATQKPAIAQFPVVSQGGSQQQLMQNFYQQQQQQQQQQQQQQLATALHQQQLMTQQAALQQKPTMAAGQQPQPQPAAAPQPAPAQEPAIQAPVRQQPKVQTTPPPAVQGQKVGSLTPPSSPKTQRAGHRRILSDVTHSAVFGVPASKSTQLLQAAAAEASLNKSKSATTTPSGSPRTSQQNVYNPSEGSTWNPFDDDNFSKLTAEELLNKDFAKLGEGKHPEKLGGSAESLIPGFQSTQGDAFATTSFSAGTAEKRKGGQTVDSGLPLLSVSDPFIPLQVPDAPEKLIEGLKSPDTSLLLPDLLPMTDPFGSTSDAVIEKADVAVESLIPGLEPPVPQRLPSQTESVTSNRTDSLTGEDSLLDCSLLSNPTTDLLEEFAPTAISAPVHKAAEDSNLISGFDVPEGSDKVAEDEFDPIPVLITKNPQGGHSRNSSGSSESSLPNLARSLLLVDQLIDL

[4] = biological target: T1, GAK (Homo sapiens, UniProt O14976); assay: TR-FRET ligand-binding displacement assay
T1 sequence (O14976 1-1311): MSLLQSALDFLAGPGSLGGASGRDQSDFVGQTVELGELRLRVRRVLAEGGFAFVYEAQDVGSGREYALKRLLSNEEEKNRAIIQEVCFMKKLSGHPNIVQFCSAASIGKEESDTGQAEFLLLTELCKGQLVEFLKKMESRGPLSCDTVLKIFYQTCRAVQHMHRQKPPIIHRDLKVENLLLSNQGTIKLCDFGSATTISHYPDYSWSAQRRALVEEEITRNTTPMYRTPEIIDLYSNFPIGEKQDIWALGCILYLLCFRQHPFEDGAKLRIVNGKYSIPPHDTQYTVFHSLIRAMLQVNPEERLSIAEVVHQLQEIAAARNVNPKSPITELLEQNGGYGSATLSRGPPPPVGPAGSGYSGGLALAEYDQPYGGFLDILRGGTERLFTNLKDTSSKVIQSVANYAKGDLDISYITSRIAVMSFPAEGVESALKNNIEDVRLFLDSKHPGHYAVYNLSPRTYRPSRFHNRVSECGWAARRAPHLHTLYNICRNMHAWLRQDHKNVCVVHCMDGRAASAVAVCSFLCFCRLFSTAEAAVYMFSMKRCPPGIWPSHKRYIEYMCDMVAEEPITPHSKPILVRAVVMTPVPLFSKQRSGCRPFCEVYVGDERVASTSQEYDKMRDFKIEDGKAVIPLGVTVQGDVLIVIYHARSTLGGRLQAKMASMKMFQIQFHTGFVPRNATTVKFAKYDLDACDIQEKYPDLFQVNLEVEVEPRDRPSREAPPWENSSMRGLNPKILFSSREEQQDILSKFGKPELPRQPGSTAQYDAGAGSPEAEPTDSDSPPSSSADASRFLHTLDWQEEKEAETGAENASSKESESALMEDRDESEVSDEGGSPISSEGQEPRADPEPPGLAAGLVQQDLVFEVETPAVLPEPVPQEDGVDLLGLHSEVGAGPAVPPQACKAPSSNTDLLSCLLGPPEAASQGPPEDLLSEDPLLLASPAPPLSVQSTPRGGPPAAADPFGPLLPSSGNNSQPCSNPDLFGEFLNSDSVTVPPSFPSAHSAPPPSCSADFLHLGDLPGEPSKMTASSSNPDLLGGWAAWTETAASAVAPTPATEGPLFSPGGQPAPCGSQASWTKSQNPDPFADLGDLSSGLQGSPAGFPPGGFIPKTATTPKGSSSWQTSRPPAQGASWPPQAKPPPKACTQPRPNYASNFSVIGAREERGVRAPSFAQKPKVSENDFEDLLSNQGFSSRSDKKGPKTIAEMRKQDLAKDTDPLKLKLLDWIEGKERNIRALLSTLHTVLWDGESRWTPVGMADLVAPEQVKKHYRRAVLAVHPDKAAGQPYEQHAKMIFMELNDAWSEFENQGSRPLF

[5] = metabolite identification in mouse liver microsomes
Experimental: After centrifugation, the supernatant was subjected to analysis by LCMS, and structures of metabolites were assigned on the basis of their molecular weight and fragmentation pattern.
Compounds were incubated at a concentration of 10 µM with mouse liver microsomes in the presence of an excess of NADPH.
1.1. General Numbering of Metabolites
The metabolites are numbered according to their retention times in the gradient LC-MS analysis in positive […]
ion mode. […] The M number increases […]
consecutively for metabolites with increasing retention time.
To avoid confusion, labelled retention times of a metabolite peak in different injections are the same, which may lead to mismatch between labelled retention time and actual retention time.
General Strategy for Metabolite Identification
The vehicle control and study samples were injected into LC-MS with gradient elution using a Q1 scan method. Searching for potential metabolites was then performed using LightSight software (Applied Biosystems/MDS Sciex) by comparing a total ion current chromatogram of Q1 scan from a study sample with a chromatogram from the corresponding vehicle control sample. The study sample was then injected again to obtain the product ion spectra of potential metabolites using product ion scan methods. The fragmentation patterns of the potential metabolites were then compared to the fragmentation of the parent compound to elucidate the structures of the metabolites.
The assignment of fragments is shown
2.2. Identification of Metabolites in Mouse Liver Microsomal Incubation

[6] = mouse liver microsome metabolic stability; conditions: for T1/2 Ratio (+) ABT / T1/2 Ratio (−) ABT / T1/2 Ratio / CLint scaled / half-life: mouse liver microsomes; for T1/2 Ratio (+) ABT / T1/2 Ratio (−) ABT: normalized to propranolol; for T1/2 Ratio: normalization with respect to internal control (propranolol); for CLint scaled / half-life: mouse; for half-life / T1/2: mean average, n = 2
Experimental: SGC-GAK-1 (1) was incubated with MLMs in the presence or absence of added NADPH, and the compound was quantified at various time points over an hour.
The metabolic stability of the 4-anilinoquinolines (8–13) were evaluated in MLMs (Table 1). Half-lives for metabolic clearance were normalized to propranolol in each experimental run to control for variations in the MLM preparations.

[7] = biological target: STK16 (Homo sapiens, UniProt O75716); assay: NAK family TR-FRET binding displacement assay
STK16, sequence (O75716 whole entry): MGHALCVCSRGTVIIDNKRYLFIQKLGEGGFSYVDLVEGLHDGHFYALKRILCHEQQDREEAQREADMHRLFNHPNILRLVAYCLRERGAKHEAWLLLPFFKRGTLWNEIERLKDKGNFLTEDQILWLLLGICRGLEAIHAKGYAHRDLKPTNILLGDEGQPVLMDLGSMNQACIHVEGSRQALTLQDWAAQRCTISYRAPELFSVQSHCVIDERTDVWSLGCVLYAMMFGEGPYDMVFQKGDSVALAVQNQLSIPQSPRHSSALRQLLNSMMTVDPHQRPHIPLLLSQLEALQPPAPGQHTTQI

[8] = biological target: T1, GAK; assay: live cell NanoBRET target engagement assay; format: cell-based; conditions: for IC50: nanoBRET, mean average, n = 2; for IC50 values in cells: live cell NanoBRET assay
[9] = pH 7.4, aqueous buffer, kinetic from dmso stock, read-out: Kinetic Solubility µM
[10] = pH 7.4, aqueous buffer, kinetic from dmso stock, read-out: Kinetic Solubility µg/mL
[11] = TR-FRET assay, read-out: Biochemical GAK Ki
[12] = Clint (mL/min/kg) (+) ABT, (+) ABT
[13] = Clint (mL/min/kg) (−) ABT, (−) ABT
[14] = T1/2 (min), mouse liver microsomes with NADPH
[15] = NAK family FRET screening, read-out: Binding displacement assay STK16 Ki
[16] = NAK family FRET screening, read-out: Binding displacement assay BMP2K Ki
[17] = mouse liver microsomes with NADPH
[18] = NAK family FRET screening, read-out: Binding displacement assay GAK Ki

BMP2K, sequence (Q9NSY1 whole entry): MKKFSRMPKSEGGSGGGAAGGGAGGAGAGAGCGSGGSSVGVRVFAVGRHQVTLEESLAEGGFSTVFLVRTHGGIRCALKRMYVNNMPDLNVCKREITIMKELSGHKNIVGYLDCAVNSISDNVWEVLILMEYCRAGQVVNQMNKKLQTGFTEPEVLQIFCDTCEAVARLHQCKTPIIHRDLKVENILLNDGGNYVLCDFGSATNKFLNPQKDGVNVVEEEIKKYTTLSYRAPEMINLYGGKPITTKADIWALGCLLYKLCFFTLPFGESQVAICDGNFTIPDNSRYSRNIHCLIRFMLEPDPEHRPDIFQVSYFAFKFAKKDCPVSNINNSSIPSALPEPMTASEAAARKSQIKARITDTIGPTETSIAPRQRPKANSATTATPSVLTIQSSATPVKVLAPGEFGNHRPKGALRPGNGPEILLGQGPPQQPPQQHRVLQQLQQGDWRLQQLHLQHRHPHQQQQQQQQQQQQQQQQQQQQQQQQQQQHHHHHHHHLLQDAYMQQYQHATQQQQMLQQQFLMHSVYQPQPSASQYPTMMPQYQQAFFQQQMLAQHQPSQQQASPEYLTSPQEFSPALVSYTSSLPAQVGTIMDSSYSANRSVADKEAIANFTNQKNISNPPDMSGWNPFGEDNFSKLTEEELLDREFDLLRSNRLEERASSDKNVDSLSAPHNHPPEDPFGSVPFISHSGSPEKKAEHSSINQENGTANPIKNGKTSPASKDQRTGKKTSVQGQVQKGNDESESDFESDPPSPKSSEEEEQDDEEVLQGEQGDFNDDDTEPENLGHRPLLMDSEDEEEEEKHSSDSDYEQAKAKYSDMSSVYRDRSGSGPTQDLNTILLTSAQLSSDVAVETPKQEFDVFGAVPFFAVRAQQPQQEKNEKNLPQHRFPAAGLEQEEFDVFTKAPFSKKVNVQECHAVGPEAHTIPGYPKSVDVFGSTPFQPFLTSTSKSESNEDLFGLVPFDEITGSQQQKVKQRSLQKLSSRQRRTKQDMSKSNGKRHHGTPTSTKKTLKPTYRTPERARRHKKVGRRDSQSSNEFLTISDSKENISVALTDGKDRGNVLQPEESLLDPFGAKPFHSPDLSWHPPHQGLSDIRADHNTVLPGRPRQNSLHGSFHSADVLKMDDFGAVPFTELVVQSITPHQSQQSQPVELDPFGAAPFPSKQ

Row | Molecule | Ki [1] | solubility kinetic [2, 9] | solubility kinetic [2, 10] | Ki [3] | Ki [4, 11] | T1/2 Ratio [6] | half-life [6, 14] | Ki [7, 15] | IC50 [8] | IC50 values in cells [8] | also measured
1 | Brc1ccc2nccc(Nc3cccc4c3OCO4)c2c1 [Compound 9, N-(Benzo[d][1,3]dioxol-4-yl)-6-bromoquinolin-4-amine] | > 100 µM | 7.3 µM | 2.5 µg/mL | > 100 µM | 1.9 nM | 1.9 | 8.9 min | > 100 µM | 22 nM | – | Primary Metabolism Site [5]: Aniline; Primary Metabolite Mass [5]: Parent + O; T1/2 Ratio (+) ABT ([6]; (+) ABT): 0.13; T1/2 Ratio (−) ABT ([6]; (−) ABT): 0.05; CLint scaled [6, 12]: 3140 mL/min/kg; CLint scaled [6, 13]: 7610 mL/min/kg; half-life ([6]; T1/2 (min) (+) ABT, (+) ABT): 1.8 min; half-life ([6]; T1/2 (min) (−) ABT, (−) ABT): 0.74 min
2 | Fc1ccc(F)c(Nc2ccnc3ccc(Br)cc23)c1 [Compound 10, 6-Bromo-N-(2,5-difluorophenyl)quinolin-4-amine] | 9.8 µM | 2.2 µM | 0.7 µg/mL | 3.8 µM | 15 nM | 0.17 | 1.7 min | 6.2 µM | 870 nM | – | Primary Metabolism Site [5]: Aniline; Primary Metabolite Mass [5]: Parent + O
3 | COc1cc(Nc2ccnc3ccc(C(F)(F)F)cc23)cc(OC)c1OC [Compound 13] | – | – | – | 54 µM | – | – | – | 17 µM | – | – | Ki [1, 16]: > 100 µM; Primary Metabolism Site [5]: Aniline; Primary Metabolite Mass [5]: Parent + O; T1/2 [6, 17]: 6.4 min
4 | Fc1ccc2c(c1Nc1ccnc3ccc(Br)cc13)OCO2 [Compound 14, 6-Bromo-N-(5-fluorobenzo[d][1,3]dioxol-4-yl)quinolin-4-amine] | 16 µM | 8.8 µM | 3.2 µg/mL | 9.7 µM | 1.4 nM | 0.27 | 1.8 min | 20 µM | 120 nM | – | T1/2 Ratio (+) ABT ([6]; (+) ABT): 0.18; T1/2 Ratio (−) ABT ([6]; (−) ABT): 0.05; CLint scaled [6, 12]: 2290 mL/min/kg; CLint scaled [6, 13]: 7550 mL/min/kg; half-life ([6]; T1/2 (min) (+) ABT, (+) ABT): 2.5 min; half-life ([6]; T1/2 (min) (−) ABT, (−) ABT): 0.74 min
5 | Brc1ccc2nccc(Nc3cccc4cnoc34)c2c1 [Compound 21, N-(6-Bromoquinolin-4-yl)benzo[d]isoxazol-7-amine] | 12 µM | 24.9 µM | 8.5 µg/mL | 4.6 µM | 37 nM | 0.64 | 5.2 min | 7.6 µM | 1400 nM | – | –
6 | Brc1ccc2nccc(Nc3cccc4oncc34)c2c1 [Compound 22, N-(6-Bromoquinolin-4-yl)benzo[d]isoxazol-4-amine] | 15 µM | 3.6 µM | 1.2 µg/mL | 4.6 µM | 19 nM | 0.17 | 1.4 min | – | > 5000 nM | – | Ki [7]: 15 µM
7 | Brc1ccc2nccc(Nc3cccc4ncoc34)c2c1 [Compound 23, N-(6-Bromoquinolin-4-yl)benzo[d]oxazol-7-amine] | > 100 µM | 25.9 µM | 8.8 µg/mL | > 100 µM | – | 0.21 | 1.7 min | > 100 µM | 340 nM | submicromolar | Ki [4, 18]: 11 nM
8 | Brc1ccc2nccc(Nc3cccc4ncsc34)c2c1 [Compound 24, N-(6-Bromoquinolin-4-yl)benzo[d]thiazol-7-amine] | 7.9 µM | 8.6 µM | 3.1 µg/mL | 2.6 µM | – | 0.68 | 5.3 min | – | 220 nM | submicromolar | Ki [4, 18]: 4.1 nM; Ki [7]: 7.8 µM
9 | Brc1ccc2nccc(Nc3cccc4scnc34)c2c1 [Compound 25, N-(6-Bromoquinolin-4-yl)benzo[d]thiazol-4-amine] | > 100 µM | 1.1 µM | 0.4 µg/mL | 1.2 µM | 26 nM | 0.32 | 2.6 min | > 100 µM | > 5000 nM | – | –
10 | Brc1ccc2nccc(Nc3cccc4nsnc34)c2c1 [Compound 29, N-(6-Bromoquinolin-4-yl)benzo[c][1,2,5]thiadiazol-4-amine] | 4.3 µM | 1.7 µM | 0.6 µg/mL | 2 µM | 5.3 nM | 0.20 | 1.6 min | 22 µM | 400 nM | submicromolar | –
11 | Brc1ccc2nccc(Nc3cccc4[nH]ncc34)c2c1 [Compound 32, 6-Bromo-N-(1H-indazol-4-yl)quinolin-4-amine] | 7.4 µM | 5.1 µM | 1.7 µg/mL | 4.6 µM | 14 nM | 0.32 | 2.5 min | 19 µM | 760 nM | submicromolar | –
12 | Brc1ccc2nccc(Nc3ccc4[nH]ncc4c3)c2c1 [Compound 37, 6-Bromo-N-(1H-indazol-5-yl)quinolin-4-amine] | 0.66 µM | 12.3 µM | 4.2 µg/mL | 0.52 µM | 47 nM | 0.92 | 7.5 min | 5.7 µM | > 5000 nM | – | –
13 | N-(1H-Indazol-4-yl)-6-(trifluoromethyl)quinolin-4-amine [Compound 33] | – | – | – | 4.6 µM | 720 nM | 0.90 | – | 11 µM | > 5000 nM | – | Ki [1, 16]: 16 µM; Kinetic Solubility µg/mL [2]: 8.2 µg/mL; solubility kinetic ([2]; read-out: Kinetic Solubility µM): 24.2 µM; T1/2 [6, 17]: 5.9 min
